Values joined by “and” are separate entries in the source; they are usually repeats but may differ in a detail not shown here. Identical values can stand only once. Active and inactive are the calls of the source. No stated cut-off is given here; in the data, active means AC50 below about 11 µM.
system: B cell line, TNFa signaling counterscreen reporter; assay: TNFa pathway inhibition counter-screen, B-lineage cells – dose response (AID 1259334);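 further: cells stimulated with TNFa after compound preincubation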

Structure (SMILES)	AC50
COc1ccc(S(=O)(=O)Nc2ccc3c(c2)C(=O)N([C@@H](C)CO)C[C@@H](C)[C@@H](CN(C)Cc2ccc(C(F)(F)F)cc2)OCCCC[C@@H](C)O3)cc1	> 20 µM (inactive)
Cc1ccc(CN2CC(C(=O)Nc3ncc(C)s3)CC2=O)cc1 (stereo not given)	4.2 µM
N#C[C@@H]1[C@H](c2ccc(C#CC3CCCCC3)cc2)[C@@H](CO)N1S(=O)(=O)c1ccccc1	7.1 µM
Cc1ccc(C(OCC(O)CNCc2ccc(F)cc2)c2ccccc2)cc1 (stereo not given)	7.2 µM
O=C(NC(=S)/C(=C1\CCCCCN1)[N+](=O)[O-])c1ccccc1	0.12 µM
C=CC[n+]1c(/C=C2\C=Cc3cc(C)ccc3N2CC)ccc2ccccc21	0.951 µM
C[C@@H]1CC=CC[C@H](c2ccc(F)cc2)NC(=O)[C@@H](Cc2ccccc2)N(C)C(=O)c2ccccc2O1 (mixture of isomers)	> 20 µM (inactive)
CC(=O)NC12CC3CC(C1)CC(C(=O)OCC(=O)c1ccc4c(c1)OCCO4)(C3)C2	6.44 µM
O=C(c1ccc(Nc2nccc(-c3cc4ccccc4s3)n2)cc1)N1CCC(N2CCCC2)CC1	0.15 µM and 0.715 µM
CC(NCC(O)COCCC12CC3CC(CC(C3)C1)C2)c1ccccc1 (stereo not given)	4.1 µM
Cc1ccc(-c2cc(C(=O)N(C)CC(=O)Nc3ccccc3Br)c3ccccc3n2)o1	11.1 µM
NC(=NCCCCCCN=C(N)/N=C(\N)Nc1ccc(Cl)cc1)/N=C(\N)Nc1ccc(Cl)cc1	10.5 µM
Cc1ccc(S(=O)(=O)C=CS(=O)(=O)c2ccc(C)cc2)cc1	1.22 µM
[O-]C(=C(C(=S)Nc1cccc2ccccc12)[n+]1ccccc1)c1ccc2c(c1)OCCO2	> 20 µM (inactive)
O=S(=O)(CCSc1ccccn1)c1nc2ccccc2s1	5.13 µM
COC(=O)C1=C(C(=O)OC)C2OC1c1cc3ccccc3cc12	0.519 µM
C[C@@H]1CN([C@H](C)CO)C(=O)c2ccccc2-c2ccccc2CO[C@@H]1CN(C)Cc1ccccc1C(F)(F)F	10.7 µM
C[C@@H]1CN([C@@H](C)CO)C(=O)c2ccccc2-c2ccccc2CO[C@@H]1CN(C)C(=O)c1cc(Cl)cc(Cl)c1	> 20 µM (inactive)
C[C@@H]1CN([C@@H](C)CO)C(=O)c2c(c3ccccc3n2C)-c2ccccc2CO[C@H]1CN(C)C(=O)Nc1ccccc1C(F)(F)F	8.9 µM
CCCCCCCCCCCCCCCC[n+]1ccccc1	0.119 µM
C[C@@H]1C[C@@H]([C@H](O)CC2CC(=O)NC(=O)C2)C(=O)[C@@H](C)C1	0.199 µM
CCCC(=O)NC1=C(Cl)C(=O)c2ccccc2C1=O	0.712 µM
C[C@@H]1CN([C@@H](C)CO)C(=O)c2c(c3ccccc3n2C)-c2ccccc2CO[C@H]1CN(C)C(=O)Nc1cccc(C(F)(F)F)c1	10.9 µM

Structure (SMILES)	AC50
Cc1cccc(-c2ccc(C3[C@@H]4CN(C(=O)Nc5ccc(C(F)(F)F)cc5)C[C@H]3N4)cc2)c1 (stereo not given in full)	> 20 µM (inactive)
COc1ccc(-c2cc(-c3ccccc3)c(C#N)c(S(C)=O)n2)cc1 (stereo not given)	1.53 µM
C[C@H]1CN([C@@H](C)CO)C(=O)c2c(c3ccccc3n2C)-c2ccccc2CO[C@H]1CN(C)C(=O)Nc1cccc(C(F)(F)F)c1	> 20 µM (inactive)
Cc1c(C(=O)c2cccc3ccccc23)c2cccc3c2n1[C@H](CN1CCOCC1)CO3	10.2 µM
Cn1cnc([N+](=O)[O-])c1S(=O)(=O)Oc1cccc2ccccc12	0.397 µM
CC(C)(C)NCC(=Cc1ccccc1)C(=O)c1ccccc1	2.84 µM
COC1=CC(=O)c2c(ccc3ncnc(N)c23)C1=O	0.98 µM
COc1ccc(CN(CCC(c2ccc(F)cc2)C2CCOC(C)(C)C2)C(=O)c2ccco2)cc1 (stereo not given)	11.3 µM
O=C(Cc1ccccc1)N1CC[C@@H]2[C@H]1c1cc(C#Cc3cccc(F)c3)ccc1N[C@@H]2CO	6.03 µM
O=C1NC2c3c(I)sc(I)c3C(=O)C2O1 (stereo not given)	3.87 µM
COc1ccc(C(=O)/C=C/C(=O)N(CC(=O)NC2CCCCC2)Cc2ccc(F)cc2)c(O)c1	5.1 µM
O=C(C[C@@H]1CC[C@@H]2[C@H](COC[C@H](O)CN2Cc2cc(F)ccc2F)O1)NCc1ccc(Oc2ccccc2)cc1	5.02 µM
CC(=O)Nc1ccc(Sc2ccc([N+](=O)[O-])o2)cc1	1.64 µM
C=C1C(=O)OC2CC1C(O)CC(C)=CCCC(C)=CC(O)CC2C (stereo not given)	2.27 µM
CC(=O)OC1CCC2(C)C(CCC3C4CC=C(C(C)=O)C4(C)OC(=O)CC32)C1 (stereo not given)	1.65 µM
Oc1c(Cl)cc(Cl)c(Cl)c1Cc1c(O)c(Cl)cc(Cl)c1Cl	2.69 µM
Fc1ccccc1CNCCC(Cc1ccccc1)c1ccc2c(c1)OCO2 (stereo not given)	3.4 µM
O=C1NC2C(=CC(O)C(O)C2O)c2cc3c(c(O)c21)OCO3 (stereo not given)	0.0423 µM
CCCCCCCCCc1ccc(OCCOCCOCCOCCOCCOCCOCCOCCOCCO)cc1	4.58 µM
COc1ccc2c3c([nH]c2c1)[C@H](CO)N(C(=O)Nc1ccc(F)cc1)CC31CCN(C(=O)c2ccccc2F)CC1	6.12 µM
Cc1cnc(NC(=O)c2ccc(OCC3CCCO3)cc2)s1 (stereo not given)	4.02 µM
C[C@H]1O[C@@H](O[C@H]2[C@@H](O)C[C@H](O[C@H]3[C@@H](O)C[C@H](O[C@H]4CC[C@]5(C)C6C[C@@H](O)[C@]7(C)[C@@H](C8=CC(=O)OC8)CC[C@]7(O)C6CC[C@@H]5C4)O[C@@H]3C)O[C@@H]2C)C[C@H](O)[C@@H]1O (stereo not given in full)	0.697 µM

Reference: PubChem BioAssay AID1259334 (Broad Institute, 2017)
